Data reported in patent US6818228B1 (priority 1996, dated 2004).

Legend:
[1] = Bulk density (tapped cylinder); details: nearly dry material before granulation
[2] = B.E.T.
[3] = helium displacement

| Structure (SMILES) | density (bulk) [1] | surface area as fraction of that of commercial calcium citrate tetrahydrate [2] | true density [3] | surface area [2] |
| --- | --- | --- | --- | --- |
| O=C([O-])CC(O)(CC(=O)[O-])C(=O)[O-].O=C([O-])CC(O)(CC(=O)[O-])C(=O)[O-].[Ca+2].[Ca+2].[Ca+2] [calcium citrate] | 1.1-1.2 g/cc | 1/10 | – | – |
| O.O.O.O.O=C([O-])CC(O)(CC(=O)[O-])C(=O)[O-].O=C([O-])CC(O)(CC(=O)[O-])C(=O)[O-].[Ca+2].[Ca+2].[Ca+2] [Pfizer calcium citrate tetrahydrate, calcium citrate tetrahydrate] | – | – | about 2.0 g/cc | about 10 m^2/g |
